What all share (assay): Kinase selectivity, P33-radiolabeled assay
Format in all cases: biochemical
Holding throughout (settings): 10 μM ATP

For one test, the target named is T1, BMX/ETK (Homo sapiens, UniProt P51813).
T1 construct: purchased Reaction Biology Corp
T1 sequence (P51813 1-675): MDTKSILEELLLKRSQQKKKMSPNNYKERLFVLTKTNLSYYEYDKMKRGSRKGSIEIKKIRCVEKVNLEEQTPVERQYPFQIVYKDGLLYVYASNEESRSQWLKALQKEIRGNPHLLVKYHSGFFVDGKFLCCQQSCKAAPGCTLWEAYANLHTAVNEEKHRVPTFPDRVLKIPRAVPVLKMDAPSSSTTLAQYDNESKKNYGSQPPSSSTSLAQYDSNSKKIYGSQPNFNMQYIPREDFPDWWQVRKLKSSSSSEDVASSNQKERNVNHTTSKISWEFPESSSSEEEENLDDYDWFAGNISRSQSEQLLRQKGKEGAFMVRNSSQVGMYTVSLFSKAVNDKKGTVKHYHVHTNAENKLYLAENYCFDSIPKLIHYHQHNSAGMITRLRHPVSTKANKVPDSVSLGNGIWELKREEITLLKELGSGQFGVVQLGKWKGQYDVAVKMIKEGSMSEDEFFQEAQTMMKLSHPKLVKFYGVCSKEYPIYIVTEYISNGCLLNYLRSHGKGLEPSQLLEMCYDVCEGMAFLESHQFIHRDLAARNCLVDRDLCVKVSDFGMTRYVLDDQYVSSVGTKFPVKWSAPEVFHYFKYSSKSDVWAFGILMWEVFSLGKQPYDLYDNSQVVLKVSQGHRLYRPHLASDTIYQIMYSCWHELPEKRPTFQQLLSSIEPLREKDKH
As for the experimental part: (§1) The compound was tested at a single dose in duplicate at 10 μM. Reactions were carried out at 10 μM ATP. Data are reported as % enzyme activity (relative to DMSO controls). The full data set is shown in the Supplementary Table I.

In a further test the target is T2, CDK1/cyclin E (Homo sapiens, UniProt P06493).
T2 construct: purchased Reaction Biology Corp
T2 sequence (P06493 whole entry): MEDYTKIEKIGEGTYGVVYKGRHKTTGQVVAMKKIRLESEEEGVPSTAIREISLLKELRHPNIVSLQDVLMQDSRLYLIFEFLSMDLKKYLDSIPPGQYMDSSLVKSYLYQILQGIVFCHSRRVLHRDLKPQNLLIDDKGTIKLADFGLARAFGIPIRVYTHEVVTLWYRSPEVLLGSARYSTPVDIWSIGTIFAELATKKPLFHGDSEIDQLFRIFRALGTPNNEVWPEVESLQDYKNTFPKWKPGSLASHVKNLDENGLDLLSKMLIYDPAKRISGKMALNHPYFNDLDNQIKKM
T2 sequence (P24864 whole entry partner): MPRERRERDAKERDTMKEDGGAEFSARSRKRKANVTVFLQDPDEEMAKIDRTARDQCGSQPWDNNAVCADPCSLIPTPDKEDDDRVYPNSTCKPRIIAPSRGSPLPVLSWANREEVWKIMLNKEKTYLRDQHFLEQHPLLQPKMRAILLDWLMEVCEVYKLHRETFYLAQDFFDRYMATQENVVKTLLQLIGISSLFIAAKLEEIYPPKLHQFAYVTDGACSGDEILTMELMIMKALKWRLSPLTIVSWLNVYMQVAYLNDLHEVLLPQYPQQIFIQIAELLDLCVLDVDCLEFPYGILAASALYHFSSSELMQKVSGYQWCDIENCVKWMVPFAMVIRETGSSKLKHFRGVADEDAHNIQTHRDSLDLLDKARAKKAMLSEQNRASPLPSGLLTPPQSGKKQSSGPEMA
As for the experimental part: as §1

The next test deals with T3, DDR2 (Homo sapiens, UniProt Q16832).
T3 construct: purchased Reaction Biology Corp
T3 sequence (Q16832 22-855): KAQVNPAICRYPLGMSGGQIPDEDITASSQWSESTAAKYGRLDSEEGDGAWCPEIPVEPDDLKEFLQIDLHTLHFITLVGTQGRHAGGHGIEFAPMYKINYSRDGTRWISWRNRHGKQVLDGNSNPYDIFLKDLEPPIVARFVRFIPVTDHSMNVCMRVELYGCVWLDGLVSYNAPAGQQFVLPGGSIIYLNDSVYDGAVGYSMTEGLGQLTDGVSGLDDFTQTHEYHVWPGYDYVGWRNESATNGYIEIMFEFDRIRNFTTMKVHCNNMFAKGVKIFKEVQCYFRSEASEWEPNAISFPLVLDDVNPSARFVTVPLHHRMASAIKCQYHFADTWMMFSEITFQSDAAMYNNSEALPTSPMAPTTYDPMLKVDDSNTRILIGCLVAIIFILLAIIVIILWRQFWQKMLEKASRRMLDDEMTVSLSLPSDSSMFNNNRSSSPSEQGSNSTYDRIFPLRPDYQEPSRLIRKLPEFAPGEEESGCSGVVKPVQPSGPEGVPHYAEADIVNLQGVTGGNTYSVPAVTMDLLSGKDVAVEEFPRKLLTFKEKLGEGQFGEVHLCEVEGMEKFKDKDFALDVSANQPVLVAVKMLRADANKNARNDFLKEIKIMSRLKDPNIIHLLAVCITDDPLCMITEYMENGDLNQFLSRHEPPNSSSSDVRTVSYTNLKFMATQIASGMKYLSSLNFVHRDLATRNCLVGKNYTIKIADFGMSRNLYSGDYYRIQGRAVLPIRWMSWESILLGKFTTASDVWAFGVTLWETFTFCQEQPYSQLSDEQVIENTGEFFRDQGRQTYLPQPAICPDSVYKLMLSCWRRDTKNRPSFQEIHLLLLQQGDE
As for the experimental part: as §1

In a further test the target is T4, LYN B (Homo sapiens, UniProt P07948).
T4 construct: purchased Reaction Biology Corp
T4 sequence (P07948 1-491 isoform P07948-2): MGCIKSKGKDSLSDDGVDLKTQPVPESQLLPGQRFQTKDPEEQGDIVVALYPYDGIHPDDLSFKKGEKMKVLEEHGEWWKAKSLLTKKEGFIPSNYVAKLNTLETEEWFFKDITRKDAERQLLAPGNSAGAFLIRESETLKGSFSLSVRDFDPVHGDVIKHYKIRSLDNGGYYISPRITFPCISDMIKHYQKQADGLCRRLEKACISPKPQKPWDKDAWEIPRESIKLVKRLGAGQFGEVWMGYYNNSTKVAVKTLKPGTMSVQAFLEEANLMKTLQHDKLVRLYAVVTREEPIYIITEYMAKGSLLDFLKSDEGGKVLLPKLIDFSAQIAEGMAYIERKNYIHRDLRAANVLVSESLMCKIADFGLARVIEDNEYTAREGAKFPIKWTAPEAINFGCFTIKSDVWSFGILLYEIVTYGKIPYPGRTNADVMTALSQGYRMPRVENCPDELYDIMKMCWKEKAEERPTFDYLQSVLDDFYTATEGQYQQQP
The protocol: as §1

The target of another test is T5, PIM1 (Homo sapiens, UniProt P11309).
T5 construct: purchased Reaction Biology Corp
T5 sequence (P11309 whole entry): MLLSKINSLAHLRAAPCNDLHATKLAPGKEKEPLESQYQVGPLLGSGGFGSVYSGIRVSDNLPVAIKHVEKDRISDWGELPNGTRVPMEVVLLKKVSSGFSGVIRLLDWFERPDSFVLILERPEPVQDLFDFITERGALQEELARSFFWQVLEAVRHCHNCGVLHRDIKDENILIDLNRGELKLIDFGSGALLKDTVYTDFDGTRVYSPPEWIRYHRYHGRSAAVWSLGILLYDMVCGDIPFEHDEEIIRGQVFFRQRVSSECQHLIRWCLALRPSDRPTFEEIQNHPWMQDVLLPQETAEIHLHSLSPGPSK
As for the experimental part:
as §1

Another test has as its target T6, PKN2/PRK2 (Homo sapiens, UniProt Q16513).
T6 construct: purchased Reaction Biology Corp
The protocol:
as §1

The next test deals with T7, TGFBR2 (Homo sapiens, UniProt P37173).
T7 construct: purchased Reaction Biology Corp
T7 sequence (P37173 23-567): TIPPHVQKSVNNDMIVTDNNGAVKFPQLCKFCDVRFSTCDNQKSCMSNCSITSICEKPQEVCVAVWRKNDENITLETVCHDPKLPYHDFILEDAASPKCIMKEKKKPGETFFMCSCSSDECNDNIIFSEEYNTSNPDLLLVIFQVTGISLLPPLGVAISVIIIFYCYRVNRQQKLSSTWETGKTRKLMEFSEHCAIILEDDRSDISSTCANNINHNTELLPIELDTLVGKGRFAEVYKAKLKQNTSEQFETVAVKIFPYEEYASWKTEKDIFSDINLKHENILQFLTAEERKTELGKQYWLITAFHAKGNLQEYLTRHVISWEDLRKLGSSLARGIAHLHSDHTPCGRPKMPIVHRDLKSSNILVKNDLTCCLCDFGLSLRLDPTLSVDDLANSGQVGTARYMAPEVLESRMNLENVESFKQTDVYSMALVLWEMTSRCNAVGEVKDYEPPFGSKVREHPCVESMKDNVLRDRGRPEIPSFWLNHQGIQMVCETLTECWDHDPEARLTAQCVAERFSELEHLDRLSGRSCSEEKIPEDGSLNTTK
As for the experimental part:
as §1

A further test concerns the target T8, TNIK (Homo sapiens, UniProt Q9UKE5).
T8 construct: purchased Reaction Biology Corp
The protocol:
as §1

Where [1] appears, read: read-out: % Enzyme Activity (relative to DMSO controls) AVG.
[2] abbreviates: read-out: % Enzyme Activity (relative to DMSO controls) Data 1.
[3] abbreviates: read-out: % Enzyme Activity (relative to DMSO controls) Data 2.

Where two headings read alike, the source gives them in different places.

T6 sequence (Q16513 whole entry): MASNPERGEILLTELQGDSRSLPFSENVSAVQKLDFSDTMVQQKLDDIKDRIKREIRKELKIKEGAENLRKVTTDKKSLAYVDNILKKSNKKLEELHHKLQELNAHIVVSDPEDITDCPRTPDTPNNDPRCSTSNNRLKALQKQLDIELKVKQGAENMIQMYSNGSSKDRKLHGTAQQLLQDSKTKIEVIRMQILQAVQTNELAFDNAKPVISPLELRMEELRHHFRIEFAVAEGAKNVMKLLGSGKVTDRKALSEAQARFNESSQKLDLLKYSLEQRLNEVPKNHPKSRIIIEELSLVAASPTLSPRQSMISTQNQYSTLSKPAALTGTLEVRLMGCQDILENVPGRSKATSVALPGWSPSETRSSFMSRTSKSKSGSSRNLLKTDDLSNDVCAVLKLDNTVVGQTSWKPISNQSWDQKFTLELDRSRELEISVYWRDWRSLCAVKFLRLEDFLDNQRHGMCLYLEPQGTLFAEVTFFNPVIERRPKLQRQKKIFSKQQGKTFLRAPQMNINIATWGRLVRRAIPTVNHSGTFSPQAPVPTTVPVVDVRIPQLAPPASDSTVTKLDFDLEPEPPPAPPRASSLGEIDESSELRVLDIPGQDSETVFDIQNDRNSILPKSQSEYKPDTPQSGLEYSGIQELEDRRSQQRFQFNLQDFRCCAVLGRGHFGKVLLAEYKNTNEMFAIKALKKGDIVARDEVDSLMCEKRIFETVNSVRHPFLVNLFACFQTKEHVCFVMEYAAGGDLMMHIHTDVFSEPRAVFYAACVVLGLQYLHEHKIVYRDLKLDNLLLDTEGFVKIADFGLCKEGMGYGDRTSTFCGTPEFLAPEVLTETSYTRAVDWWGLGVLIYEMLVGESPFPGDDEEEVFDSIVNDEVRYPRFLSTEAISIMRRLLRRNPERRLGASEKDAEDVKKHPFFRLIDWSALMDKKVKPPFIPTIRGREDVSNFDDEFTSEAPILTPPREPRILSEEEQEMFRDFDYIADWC
T8 sequence (Q9UKE5 whole entry): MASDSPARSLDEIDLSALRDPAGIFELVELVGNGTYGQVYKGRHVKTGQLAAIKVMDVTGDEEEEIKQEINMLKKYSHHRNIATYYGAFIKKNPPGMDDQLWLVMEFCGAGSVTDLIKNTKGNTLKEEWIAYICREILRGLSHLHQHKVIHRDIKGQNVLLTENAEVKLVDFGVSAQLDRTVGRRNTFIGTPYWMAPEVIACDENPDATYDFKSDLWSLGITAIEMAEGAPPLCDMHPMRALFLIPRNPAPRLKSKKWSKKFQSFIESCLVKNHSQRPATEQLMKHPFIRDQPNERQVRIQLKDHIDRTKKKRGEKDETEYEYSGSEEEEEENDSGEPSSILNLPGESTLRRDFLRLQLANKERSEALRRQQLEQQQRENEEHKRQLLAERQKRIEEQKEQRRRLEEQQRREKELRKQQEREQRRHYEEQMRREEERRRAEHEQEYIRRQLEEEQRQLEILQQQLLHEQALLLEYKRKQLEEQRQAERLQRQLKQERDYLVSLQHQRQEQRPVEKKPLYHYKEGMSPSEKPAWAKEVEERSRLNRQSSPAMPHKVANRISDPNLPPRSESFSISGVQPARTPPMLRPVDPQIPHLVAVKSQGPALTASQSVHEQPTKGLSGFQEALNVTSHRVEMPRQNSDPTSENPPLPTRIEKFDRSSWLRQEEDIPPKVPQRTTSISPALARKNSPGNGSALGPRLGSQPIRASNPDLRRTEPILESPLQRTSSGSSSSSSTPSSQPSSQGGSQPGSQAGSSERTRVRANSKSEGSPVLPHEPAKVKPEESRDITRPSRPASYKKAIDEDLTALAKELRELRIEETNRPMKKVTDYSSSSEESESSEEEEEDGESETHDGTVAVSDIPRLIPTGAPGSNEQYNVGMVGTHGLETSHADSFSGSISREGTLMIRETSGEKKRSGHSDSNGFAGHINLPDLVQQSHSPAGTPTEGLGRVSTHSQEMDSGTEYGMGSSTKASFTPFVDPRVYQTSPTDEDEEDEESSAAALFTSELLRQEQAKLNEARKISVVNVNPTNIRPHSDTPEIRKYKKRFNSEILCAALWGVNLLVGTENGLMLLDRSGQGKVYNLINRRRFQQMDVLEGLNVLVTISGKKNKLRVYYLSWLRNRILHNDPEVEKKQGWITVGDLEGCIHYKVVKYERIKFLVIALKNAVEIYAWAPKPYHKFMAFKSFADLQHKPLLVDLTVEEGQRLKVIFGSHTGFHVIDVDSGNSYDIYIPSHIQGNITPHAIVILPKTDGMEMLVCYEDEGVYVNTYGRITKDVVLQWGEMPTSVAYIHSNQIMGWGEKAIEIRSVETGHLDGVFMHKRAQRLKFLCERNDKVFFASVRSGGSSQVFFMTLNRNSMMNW

For `CC(C)(C)C(=O)N1N=CC[C@H]1c1ccccc1` [GSK′963], the remaining activity at 10 µM was 99.9% at BMX/ETK (setting [1]); 94.5% at BMX/ETK (setting [2]); 105% at BMX/ETK (setting [3]); 98.2% on CDK1/cyclin E (setting [1]); 102% at CDK1/cyclin E (setting [2]); 94.7% at CDK1/cyclin E (setting [3]). Moreover, the remaining activity at 10 µM amounted to 93.2% on DDR2 (setting [1]); 94% at DDR2 (setting [2]); 92.4% at DDR2 (setting [3]); 99.7% on LYN B (setting [1]); 103% on LYN B (setting [2]); 96% at LYN B (setting [3]). Moreover, the remaining activity at 10 µM at PIM1 (setting [1]) was determined as 109%; on PIM1 (setting [2]), 113%; at PIM1 (setting [3]), 106%; on PKN2/PRK2 (setting [1]), 93.3%; on PKN2/PRK2 (setting [2]), 97.5%; at PKN2/PRK2 (setting [3]) it was 89.2%. Further, the remaining activity at 10 µM on TGFBR2 (setting [1]) came to 116%; on TGFBR2 (setting [2]), 119%; at TGFBR2 (setting [3]), 114%; at TNIK (setting [1]) it was 106%; on TNIK (setting [2]) it was 108%; at TNIK (setting [3]) it was 104%.

Values taken from PMC4979471 (Cell Death Discovery, 2015).
